This passage reports half-life results from PubChem BioAssay AID1508591.

As a reminder, the half-life is how long it takes for the measured level to halve.

For the data set the following is noted: rat; liver microsomes; pH 7.4; 15.0 min; 1.0 µM. In general terms: Microsomes from liver hold many membrane-bound enzymes, among them those of drug oxidation.
`COCCNC(=O)[C@H]1C[C@H](Oc2ccccc2)CN1Cc1ccc2[nH]ccc2c1` yielded a half-life of 0.97 min.
Compound `CNC(=O)c1cccc(-c2cnc(Nc3cccc(C(F)(F)F)c3)c3c2CCO3)c1` yielded a half-life greater than 30 min.
On to `COc1ccc(CCNc2ncnc3onc(C)c23)c(OC)c1`, for which the half-life was found to be 2.23 min.
`COc1ccc(C(=O)CCN(C)C)cc1F`: the half-life stood at 1.08 min. This half-life is about 2.1-fold lower than that of the compound before.
The value for `CC(=O)N1CCC(NC(=O)c2nc(-c3ccccc3)cc3[nH]ccc23)CC1` was greater than 30 min; that for `CN(C)C(=O)NC1CCC(CCN2CCN(c3cccc(Cl)c3Cl)CC2)CC1` (centres undefined) was greater than 30 min.
Compound `Cc1ccc(S(=O)(=O)Nc2cnccc2C(=O)Nc2nc(-c3nc4ccccc4s3)cs2)cc1` returned a half-life of 24 min.
To `COc1cc2ncnc(Oc3cccc(NC(=O)Nc4cc(C(C)(C)C(F)(F)F)on4)c3)c2cc1OC` belongs greater than 30 min; to `Cc1ccccc1C(=O)Nc1nc2c(s1)CC(C(C)(C)C)CC2` (centres undefined), 10.5 min.
To `NC(=O)C1CCN(c2nc(-c3ccc(C(F)(F)F)cc3)cs2)CC1` belongs 5.39 min.
`O=C(CCCN1CCC(n2c(=O)[nH]c3ccccc32)CC1)c1ccc(F)cc1`: the half-life amounted to 10.9 min.
The value for `Cc1ccc(S(=O)(=O)Nc2ccccc2C(=O)Nc2ccc(-c3ccccc3)nc2)cc1` was 2.7 min; that for `CC(=O)Nc1cccc(-c2csc(Nc3cc(C)ccn3)n2)c1` was greater than 30 min.
To `O=C(Nc1nc(-c2ccccc2)cs1)c1ccncc1NS(=O)(=O)c1ccc(F)c(F)c1` belongs 11 min; to `O=c1cc(N2CCOCC2)oc2c1ccc1ccccc12`, greater than 30 min.
The compound `CCCCc1ccc(NC(=O)c2ccc3c(c2)N(S(C)(=O)=O)CC3)cc1` registered a half-life of 4.38 min.
For `Cc1cc(N2CCN(c3ccccc3)CC2)nc(-n2nc(C)cc2C)n1`, the half-life was greater than 30 min.
To `O=C(Nc1ccc2c(N3CCOCC3)ncnc2c1)c1cccc(Br)c1` belongs 10.1 min.
To `CCOC(=O)C1=C(C)NC(=O)CC1C(=O)Nc1cc(Cl)cc(Cl)c1` (centres undefined) belongs 6.1 min.
In turn, `COc1ccccc1CNS(=O)(=O)c1ccc(-c2cnc(C3CC3)o2)cc1` gave a half-life of 1.58 min. This half-life lies about 3.9-fold lower than the previous one.
The value for `CC(=O)Nc1nc(-c2ccc3c(c2)CCN3C(=O)c2ccccc2C)c(C)s1` was 18 min.
The value for `Cc1ccccc1C(=O)N1CCc2cc(-c3nc(NC(=O)Cc4ccc5c(c4)OCO5)sc3C)ccc21` was 15.5 min; that for `O=C1CCCC2=C1C(c1[nH]ncc1Cl)N=C(Nc1nc3ccc(Cl)cc3o1)N2` (centres undefined) was 10 min; that for `O=C(Cc1ccc(Cl)c(Cl)c1)Nc1ccc(S(=O)(=O)Nc2ccon2)cc1` was greater than 30 min.
To `Cc1noc(C)c1-c1ccc(-c2cc(C(N)=O)c(NC(N)=O)s2)c(O[C@H]2CCNC2)c1` belongs greater than 30 min.
Compound `CCc1nc2c(sc3nc4c(cc32)COC(C)(C)C4)c(=O)n1Cc1ccco1` displayed a half-life of 6.88 min.
Take `Cc1cc(NS(=O)(=O)c2ccc(NC(=O)c3oc4ccccc4c3C)cc2)nc(C)n1`: the half-life is greater than 30 min.
`O=C(NCCc1ccccc1)C1CCN(c2nc(-c3ccc(Br)cc3)cs2)CC1` registered a half-life of 1.71 min.
Compound `Fc1cc(Nc2nc(-c3ccncc3)nc3ccccc23)ccc1-c1ccc2[nH]ncc2c1` had a half-life greater than 30 min.
Take `CC(C)c1ccc(Nc2c(-c3ccccn3)nc3ccccn23)cc1`: the half-life is 2.1 min.
To `Fc1ccc(-c2csc3ncnc(NCc4ccc5c(c4)OCO5)c23)cc1` belongs 19.2 min.
In turn, `CC(C)N(CCCNC(=O)Nc1ccc(C(C)(C)C)cc1)C[C@H]1O[C@@H](n2ccc3c(N)ncnc32)[C@H](O)[C@@H]1O` yielded a half-life of 2.42 min. This half-life lies about 7.9-fold lower than the previous one.
The value for `Clc1cccc(Nc2nc(-c3ccncc3)nc3ccccc23)c1` was 7.7 min.
Consider `COc1ccc(OC)c(-c2cc(C(=O)N3CCN(c4ncccn4)CC3)c3ccccc3n2)c1`, for which the half-life was 7.87 min.
To `Cc1cc(Nc2ccc(Br)c(C)c2)n2nc(C)nc2n1` belongs 6.7 min; to `CCOc1ccc(C(=O)Nc2ccc(S(=O)(=O)N3CCCCC3c3cccnc3)cc2)cc1` (centres undefined), 1.71 min.
To `O=C(Nc1cccc(C(F)(F)F)c1)c1cc2nc(-c3ccccc3)cc(C(F)(F)F)n2n1` belongs greater than 30 min; to `CCOc1ccccc1C(=O)Nc1ccncc1C(=O)Nc1cccc(S(=O)(=O)C(F)(F)F)c1`, greater than 30 min; to `CCOc1ccc(CCNC(=O)c2cc3sccc3n2Cc2ccc(-n3cncn3)cc2)cc1OCC`, 4.3 min.
To `COc1cccc(CN2CCNc3cc(Nc4ccccc4)ncc3C2)c1` belongs 1.58 min.
As for `Oc1ccc(CNc2cccc(F)c2F)c2cccnc12`, the half-life was 6.35 min.
Compound `COc1ccccc1-c1csc(N2CCC(C(N)=O)CC2)n1` had a half-life of 15 min.
In turn, `CNc1cc(-c2nc(Nc3ccc(F)c(F)c3)c3ccccc3n2)ccn1` yielded a half-life of 8.2 min. This half-life is about 1.8-fold lower than that of the compound before.
The value for `CC(=O)N1CCN(c2ccc(OCc3nn(C)c(C)c3-c3cccc4c(CCCOc5cccc6ccccc56)c(C(=O)O)n(Cc5cccnc5)c34)cc2)CC1` was 15 min; that for `O=S(=O)(Nc1ccc(C2CCNCC2)cc1)c1ccc(NCc2cccc(Cl)c2O)cc1` was 20 min.
To `C[C@@]1(C(=O)Nc2ccc(F)nc2)CCCN1c1nc(Nc2cc(C3CC3)[nH]n2)c2cccn2n1` belongs 8.35 min; to `OC1(c2ccc(Cl)cc2)CCN(Cc2c[nH]c3ccccc23)CC1`, 3.89 min; to `Cc1ccc(-c2csc(NC(=O)c3ccccc3NS(=O)(=O)c3ccc(C)cc3)n2)cc1`, 2.6 min.
The value for `COc1ccc(N(C)C(=O)c2cc3c(s2)-c2ccccc2OC3)cc1` was 7.6 min; that for `COc1ccc(C)cc1NC(=O)c1cnc(-c2ccc(F)cc2)nc1-c1ccncc1` was 5.86 min; that for `Fc1ccc(Cc2nc3nccc(-c4cccs4)n3n2)cc1` was 2.95 min.
`C[C@@H]1CN(CC(=O)N2CC(C)(C)c3ncc(Cc4ccc(F)cc4)cc32)[C@@H](CN2CCOC[C@H]2C)CN1`: the half-life worked out at 7.57 min. This half-life is about 2.6-fold higher than that of the compound before.
The value for `COc1ncccc1-c1cc2[nH]ccc2c(C(=O)NCc2c(C)cc(C)[nH]c2=O)n1` was 5.48 min; that for `CCOc1ccc(CCNC(=O)c2ccnn2Cc2ccccn2)cc1OCC` was 5.6 min.
To `COc1ccc(/C=C2/C(=O)Nc3ccccc32)cc1O` belongs greater than 30 min; to `CCn1c(C(=O)NCCc2ccc(OC)cc2)cc2sccc21`, 1.9 min; to `CC(=O)c1ccc(N2CCN(c3ccc(NC(=O)c4ccc(F)cc4)cc3C(=O)O)CC2)cc1`, greater than 30 min.
Take `C[C@@H]1[C@@H](CC(C[C@H]2O[C@@H]3O[C@]4(C)CC[C@@H]5[C@H](C)CC[C@@H]([C@H]2C)[C@@]35OO4)C(=O)NCc2ccc(F)cc2)O[C@@H]2O[C@]3(C)CC[C@H]4[C@H](C)CC[C@@H]1[C@@]24OO3` (some centres undefined): the half-life worked out at 2.4 min.
In turn, `O=[S+]([O-])(Nc1nccs1)c1ccc(NCc2cccc(Cl)c2)cc1` showed a half-life of 15 min.
The value for `Cc1ccc(S(=O)(=O)Nc2cnccc2C(=O)Nc2nc(C(=O)O)cs2)cc1` was greater than 30 min; that for `O=C(CCCCCCC(=O)Nc1ccccc1)NO` was greater than 30 min; that for `CN1CCCC(CC2c3ccccc3Sc3ccccc32)C1` (centres undefined) was 1.4 min.
To `Cc1ccc(S(=O)(=O)Nc2ccccc2CNc2nc(-c3ccccc3)cs2)cc1` belongs 1.6 min; to `O=C(CSc1ccccc1)Nc1nnc(COc2ccc(Cl)cc2)s1`, 7 min.
